Test results from ChEMBL document CHEMBL5050839, “Methods and compositions for treatment of cancer” (2021).
The source made the active and inactive calls. The calls are words filed in the database; no cut-off is given here.

Experiments:
Assay type in all cases: functional, cell-based
Settings in all cases: for Activity: time 24-48 hrs
[1] = test system: ASPC1; assay: Antiproliferative activity against human ASPC1 cells after 24 to 48 hrs by Cell Titer-Glo luminiscent cell viability assay
[2] = test system: MIA PaCa-2; assay: Antiproliferative activity against human MIA PaCa-2 cells after 24 to 48 hrs by Cell Titer-Glo luminiscent cell viability assay
[3] = test system: PANC-1; assay: Antiproliferative activity against human PANC-1 cells after 24 to 48 hrs by Cell Titer-Glo luminiscent cell viability assay
[4] = test system: BXPC-3; assay: Antiproliferative activity against human BXPC-3 cells after 24 to 48 hrs by Cell Titer-Glo luminiscent cell viability assay

| SMILES | Activity [1] | Activity [2] | Activity [3] | Activity [4] | IC50 [1] [µM] | IC50 [2] [µM] | IC50 [3] [µM] | IC50 [4] [µM] |
| --- | --- | --- | --- | --- | --- | --- | --- | --- |
| CCC1=C(C)CN(C(=O)NCCc2ccc(S(=O)(=O)NC(=O)N[C@H]3CC[C@H](C)CC3)cc2)C1=O | Active | Active | Active | Active | – | – | – | – |
| COc1ccc(-c2ccc3cc(C(=O)O)ccc3c2)cc1C12CC3CC(CC(C3)C1)C2 | Active | Active | Active | Active | – | – | – | – |
| CC1(C)O[C@H]2C[C@H]3[C@@H]4CCC5=CC(=O)C=C[C@]5(C)[C@H]4[C@@H](O)C[C@]3(C)[C@]2(C(=O)CO)O1 | Active | Active | Active | Active | – | – | – | – |
| COc1ccc(CCN2CCC(Nc3nc4ccccc4n3Cc3ccc(F)cc3)CC2)cc1 [ASTEMIZOLE] | – | – | – | – | 5.3 | 1.3 | 1.8 | 3.7 |
| C[C@]12CC[C@@H]3c4ccc(OS(=O)(=O)O)cc4CC[C@H]3[C@@H]1CCC2=O | Active | Active | Active | Active | – | – | – | – |
| Cc1nc2n(c(=O)c1CCN1CCC(c3noc4cc(F)ccc34)CC1)CCCC2 [RISPERIDONE] | – | – | – | – | 35.3 | 10 | 27.6 | 7.5 |
| O=C(O)c1ccc(NC(=O)[C@H](Cc2ccc(O)cc2)NC(=O)c2ccccc2)cc1 | Active | Active | Active | Active | – | – | – | – |
| Cc1nc2n(c(=O)c1CCN1CCC(c3noc4cc(F)ccc34)CC1)CCCC2O (stereo unspecified) | Active | Active | Active | Active | – | – | – | – |
| CN1CCC(=C2c3ccccc3CC(=O)c3sccc32)CC1 | Active | Active | Active | Active | – | – | – | – |
